This note sets out measurements from ChEMBL document CHEMBL1150297, “Beta-amino acid substitutions and structure-based CoMFA modeling of hepatitis C virus NS3 protease inhibitors” (Bioorg Med Chem, 2008).

A word on the Ki: it is the dissociation constant of the complex between target and ligand, obtained from inhibition or displacement. High values mean a looser hold on the target, low ones a stronger hold on the target.

The test can be described thus: Inhibition of HCV NS3 protease by fluorescence plate reader. More on the design: species or system Hepacivirus hominis.

Molecule `COc1ccc2c(O[C@@H]3C[C@@H](C(=O)NC4(C(=O)O)CC4)N(C(=O)C[C@@H](NC(=O)OC(C)(C)C)C(C)C)C3)cc(-c3ccccc3)nc2c1` came in with a Ki of 17000 nM.

For the molecule `COc1ccc2c(O[C@@H]3C[C@@H](CC(=O)NC4(C(=O)NS(=O)(=O)c5ccccc5)CC4)N(C(=O)[C@@H](NC(=O)OC(C)(C)C)C(C)C)C3)cc(-c3ccccc3)nc2c1`, the Ki is 1800 nM. `COc1ccc2c(O[C@@H]3C[C@@H](C(=O)NC4(CC(=O)NS(=O)(=O)c5ccccc5)CC4)N(C(=O)[C@@H](NC(=O)OC(C)(C)C)C(C)C)C3)cc(-c3ccccc3)nc2c1`: the affinity, expressed as Ki, was 14000 nM. This Ki is about 7.8-fold higher than that of the molecule before. `COc1ccc2c(O[C@@H]3C[C@@H](C(=O)NC4(C(=O)NS(=O)(=O)c5ccccc5)CC4)N(C(=O)C[C@@H](NC(=O)OC(C)(C)C)C(C)C)C3)cc(-c3ccccc3)nc2c1` yielded a Ki of 1200 nM. The value for `COc1ccc2c(O[C@@H]3C[C@@H](C(=O)NC4(C(=O)C(=O)O)CC4)N(C(=O)[C@@H](NC(=O)OC(C)(C)C)C(C)C)C3)cc(-c3ccccc3)nc2c1` was 1000 nM; that for `COc1ccc2c(O[C@@H]3C[C@@H](CC(=O)NC4(C(=O)O)CC4)N(C(=O)[C@@H](NC(=O)OC(C)(C)C)C(C)C)C3)cc(-c3ccccc3)nc2c1` was 61000 nM.

Regarding `COc1ccc2c(O[C@@H]3C[C@@H](C(=O)NC4(C(=O)NS(=O)(=O)c5ccccc5)CC4)N(C(=O)[C@@H](NC(=O)OC(C)(C)C)C(C)C)C3)cc(-c3ccccc3)nc2c1`, the Ki worked out at 55 nM.

In turn, `COc1ccc2c(O[C@@H]3C[C@@H](C(=O)NC4(C(=O)O)CC4)N(C(=O)[C@@H](NC(=O)OC(C)(C)C)C(C)C)C3)cc(-c3ccccc3)nc2c1` displayed a Ki of 320 nM. Consider `COc1ccc2c(O[C@@H]3C[C@@H](C(=O)NC4(CC(=O)O)CC4)N(C(=O)[C@@H](NC(=O)OC(C)(C)C)C(C)C)C3)cc(-c3ccccc3)nc2c1`, for which the Ki was 18000 nM. Against the preceding molecule, the Ki is about 56-fold higher.
